This note sets out measurements from article PMC11587516 (ACS Chemical Neuroscience, 2024).

The target in one test is T1, hBGT1 wt (Homo sapiens, UniProt P48065).
T1 construct: expressed in transfected cells; host or cells: tsA201 cells (transformed HEK293), transient expression
T1 sequence (P48065 1-614): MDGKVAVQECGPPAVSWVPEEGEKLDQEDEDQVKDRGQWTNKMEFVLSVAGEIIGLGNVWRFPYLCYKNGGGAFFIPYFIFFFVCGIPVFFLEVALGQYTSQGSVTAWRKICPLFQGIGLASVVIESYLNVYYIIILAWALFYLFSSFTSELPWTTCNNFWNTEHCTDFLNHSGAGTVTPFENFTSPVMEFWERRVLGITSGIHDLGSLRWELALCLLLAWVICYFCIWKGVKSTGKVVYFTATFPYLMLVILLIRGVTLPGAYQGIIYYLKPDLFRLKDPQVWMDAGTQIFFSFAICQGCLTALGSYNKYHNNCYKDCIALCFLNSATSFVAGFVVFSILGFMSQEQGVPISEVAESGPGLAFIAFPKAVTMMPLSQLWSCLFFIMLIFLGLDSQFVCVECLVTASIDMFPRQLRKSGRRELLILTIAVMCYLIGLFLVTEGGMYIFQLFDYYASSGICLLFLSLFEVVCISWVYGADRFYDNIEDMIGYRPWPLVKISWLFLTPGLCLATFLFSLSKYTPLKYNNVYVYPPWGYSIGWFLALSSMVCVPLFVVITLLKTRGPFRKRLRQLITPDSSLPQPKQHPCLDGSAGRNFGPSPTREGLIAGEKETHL
The experiment in a line: [3H]GABA uptake assay, wild type hBGT1 transiently expressed in tsA201 cells. Type of test: cell-based. Here is the method: (§1) To validate the molecular modeling, particularly the crucial interactions with the Glu52 and Gln299 residues, the activity of compound 9 was tested on the following hBGT1 mutants: E52A, E52Y, Q299L, and the double mutant E52A+Q299L (Figure 5 and Table 1).[14]
(§2) The CHO cells were placed in 96-well plates (approximately 50,000 cells/well) for about 24 h before the experiment. […] After incubation, cells were washed 3 times with 100 μL/well ice-cold assay buffer, 150 μL/well MicroScint20 (PerkinElmer) was subsequently added before the plate was shaken for at least 1 h. The radioactivity of each well of the plate was measured on a TopCount NXT scintillation counter. […] Data presented are the pooled data of at least three independent experiments with three technical replicates if not stated otherwise in figure legends. Concentration–response curves were fitted by nonlinear regression to the sigmoidal concentration–response model with GraphPad Prism v 9.0.
(§3) The tsA201 cell line (a transformed HEK293 cell line) has been described previously and was cultured accordingly.[20] The tsA201 cells used for transient expression of hBGT1 mutants were transfected with DNA constructs (8 μg per 10 cm plate) using 40 μL of PolyFect transfection reagent according to the manufacturer’s protocol (Qiagen). […]

The target in another test is T2, hBGT1 E52Y (Homo sapiens, UniProt P48065, E52Y).
T2 construct: host or cells: tsA201 cells (transformed HEK293), transient expression
T2 sequence (P48065 1-614 E52Y): T1 sequence (P48065 1-614) with E52Y
The experiment in a line: [3H]GABA uptake assay, hBGT1 mutant E52Y in tsA201 cells. The class given is cell-based. Here is the method: as §1, §2, §3

Numbering of substitutions follows the chain as printed.

As to `NC12CC(C(=O)O)(C1)C2` [Compound 9], the IC50 on hBGT1 wt was 33.9 µM; against hBGT1 E52Y, greater than 1000 µM. The “activity at mutant compared with wild type hBGT1” value on hBGT1 E52Y (E52Y vs wt) is recorded as “complete loss of activity”.
